Here are results for 61 compounds from patent US11780841B2, “3,6-methano-1H-pyrrolo[3,2-b]pyridine and 3,6-methano-1H-pyrrolo[3,2-c]pyridine compounds and medicaments using same” (priority 2018, dated 2023).

The test relates to recombinant rabies virus 1088 strain expressing Gaussia Luciferase (GLuc) (1088/GLuc). Format: cell-based. The following applies: read-out: Anti-rabies activity.

`CCCCCCNC(=O)[C@@]12C[C@@H]3CN(CC4CCCCC4)[C@@H]([C@@H]3CN1)[C@H]2CCCNC(=N)N` [IF-260]: the IC50 was 10 to 30 µM.

For the compound `CC(C)CNC(=O)[C@@]12C[C@@H]3CN(Cc4ccc(F)cc4)[C@@H]([C@@H]3CN1)[C@H]2CC(N)=O` [IF-262], the IC50 is less than 5 µM.

For `NC(=O)C[C@@H]1[C@@H]2[C@@H]3CN[C@@]1(C(=O)NCCc1ccccc1)C[C@@H]3CN2Cc1ccc(F)cc1` [IF-269], the IC50 lay in the range of 10 to 30 µM.

For `CC(C)NC(=O)[C@@]12C[C@@H]3CN(Cc4ccc(F)cc4)[C@@H]([C@@H]3CN1)[C@H]2CCCNC(=N)N` [IF-274], the IC50 fell in the range of 10 to 30 µM.

For `N=C(N)NCCC[C@@H]1[C@@H]2[C@@H]3CN[C@@]1(C(=O)NCc1cccc4ccccc14)C[C@@H]3CN2Cc1ccccc1` [IF-284], the IC50 was in the range of 10 to 30 µM.

With `CCCCCCNC(=O)[C@@]12C[C@@H]3CN(Cc4ccccc4)[C@@H]([C@@H]3CN1)[C@H]2CCCNC(=N)N` [IF-285], the IC50 was in the range of 10 to 30 µM.

As for `N=C(N)NCCC[C@@H]1[C@@H]2[C@@H]3CN[C@@]1(C(=O)NCc1cccc4ccccc14)C[C@@H]3CN2Cc1ccc(F)cc1` [IF-297], the IC50 fell in the range of 10 to 30 µM.

As to `CCCCCCNC(=O)[C@@]12C[C@@H]3CN(Cc4ccc(F)cc4)[C@@H]([C@@H]3CN1)[C@H]2CCCNC(=N)N` [IF-298], the IC50 was in the range of 10 to 30 µM.

`CC(C)CC[C@@H]1[C@@H]2[C@@H]3CN[C@@]1(C(=O)NCCC(N)=O)C[C@@H]3CN2CC(C)C` [IF-300]: the IC50 is 10 to 30 µM.

As to `CC(C)CCNC(=O)[C@@]12C[C@@H]3CN(CCCNC(=N)N)[C@@H]([C@@H]3CN1)[C@H]2Cc1cccc2ccccc12` [IF-356], the IC50 fell in the range of 10 to 30 µM.

With `CC(C)CC[C@@H]1[C@@H]2[C@@H]3CN[C@@]1(C(=O)NCCC(N)=O)C[C@@H]3CN2Cc1cccc2ccccc12` [IF-384], the IC50 is 10 to 30 µM.

For `N=C(N)NCCCNC(=O)[C@@]12C[C@@H]3CN(Cc4cccc5ccccc45)[C@@H]([C@@H]3CN1)[C@H]2Cc1ccccc1` [IF-386], the IC50 lay in the range of 10 to 30 µM.

Regarding `N=C(N)NCCCNC(=O)[C@@]12C[C@@H]3CN(Cc4cccc5ccccc45)[C@@H]([C@@H]3CN1)[C@H]2CCc1ccccc1` [IF-389], the IC50 is less than 5 µM.

As for `N=C(N)NCCCNC(=O)[C@@]12C[C@@H]3CN(Cc4cccc5ccccc45)[C@@H]([C@@H]3CN1)[C@H]2Cc1cccc2ccccc12` [IF-390], the IC50 was in the range of 10 to 30 µM.

Consider `CC(C)CC[C@@H]1[C@@H]2[C@@H]3CN[C@@]1(C(=O)NCC(C)C)C[C@@H]3CN2Cc1ccccc1` [IF-411], for which the IC50 was less than 5 µM.

As to `CC(C)CC[C@@H]1[C@@H]2[C@@H]3CN[C@@]1(C(=O)NCC(C)C)C[C@@H]3CN2CC(C)C` [IF-412], the IC50 was less than 5 µM.

In the case of `CC(C)CCN1C[C@H]2C[C@]3(C(=O)NCCC(=O)O)NC[C@H]2[C@H]1[C@H]3Cc1cccc2ccccc12` [IF-413], the IC50 fell in the range of 10 to 30 µM.

As for `O=C(O)CCNC(=O)[C@@]12C[C@@H]3CN(CC4CCCCC4)[C@@H]([C@@H]3CN1)[C@H]2Cc1cccc2ccccc12` [IF-416], the IC50 fell in the range of 10 to 30 µM.

In the case of `O=C(O)CCNC(=O)[C@@]12C[C@@H]3CN(Cc4ccc(F)cc4)[C@@H]([C@@H]3CN1)[C@H]2Cc1cccc2ccccc12` [IF-417], the IC50 was in the range of 10 to 30 µM.

`O=C(O)CC[C@@H]1[C@@H]2[C@@H]3CN[C@@]1(C(=O)NCc1cccc4ccccc14)C[C@@H]3CN2CC1CCCCC1` [IF-419]: the IC50 was 10 to 30 µM.

As to `CC(C)CC[C@@H]1[C@@H]2[C@@H]3CN[C@@]1(C(=O)NCc1cccc4ccccc14)C[C@@H]3CN2CCC(=O)O` [IF-422], the IC50 was in the range of 10 to 30 µM.

For `CC(C)CN1C[C@H]2C[C@]3(C(=O)NCCC(=O)O)NC[C@H]2[C@H]1[C@H]3Cc1cccc2ccccc12` [IF-428], the IC50 is 10 to 30 µM.

As to `NC(=O)CCNC(=O)[C@@]12C[C@@H]3CN(Cc4cccc5ccccc45)[C@@H]([C@@H]3CN1)[C@H]2Cc1ccc(O)cc1` [IF-435], the IC50 is less than 5 µM.

In the case of `O=C(NCCc1ccccc1)[C@@]12C[C@@H]3CN(CC4CCCCC4)[C@@H]([C@@H]3CN1)[C@H]2Cc1ccc(O)cc1` [IF-439], the IC50 is less than 5 µM.

With `O=C(O)CCNC(=O)[C@@]12C[C@@H]3CN(CCO)[C@@H]([C@@H]3CN1)[C@H]2Cc1cccc2ccccc12` [IF-444], the IC50 lay in the range of 10 to 30 µM.

In the case of `CC(C)CCN1C[C@H]2C[C@]3(C(=O)NCc4ccc(O)cc4)NC[C@H]2[C@H]1[C@H]3CCC(=O)O` [IF-445], the IC50 fell in the range of 10 to 30 µM.

Take `O=C(O)CC[C@@H]1[C@@H]2[C@@H]3CN[C@@]1(C(=O)NCc1ccc(O)cc1)C[C@@H]3CN2CC1CCCCC1` [IF-447]: the IC50 lay in the range of 10 to 30 µM.

With `O=C(O)CCN1C[C@H]2C[C@]3(C(=O)NCCO)NC[C@H]2[C@H]1[C@H]3Cc1cccc2ccccc12` [IF-452], the IC50 lay in the range of 10 to 30 µM.

For `CC(C)CNC(=O)[C@@]12C[C@@H]3CN(CCC(=O)O)[C@@H]([C@@H]3CN1)[C@H]2CCc1ccccc1` [IF-454], the IC50 lay within 10 to 30 µM.

Turning to `CC(C)CNC(=O)[C@@]12C[C@@H]3CN(CCC(=O)O)[C@@H]([C@@H]3CN1)[C@H]2Cc1ccc(O)cc1` [IF-455], the IC50 lay in the range of 10 to 30 µM.

With `CC(C)CC[C@@H]1[C@@H]2[C@@H]3CN[C@@]1(C(=O)NCc1ccc(O)cc1)C[C@@H]3CN2CCC(=O)O` [IF-458], the IC50 was in the range of 10 to 30 µM.

Consider `CC(C)CCN1C[C@H]2C[C@]3(C(=O)NCc4ccc(O)cc4)NC[C@H]2[C@H]1[C@H]3CCc1ccccc1` [IF-464], for which the IC50 lay within 10 to 30 µM.

For `CC(C)CCN1C[C@H]2C[C@]3(C(=O)NCc4ccc(O)cc4)NC[C@H]2[C@H]1[C@H]3Cc1cccc2ccccc12` [IF-465], the IC50 fell in the range of 10 to 30 µM.

Take `CC(C)CCN1C[C@H]2C[C@]3(C(=O)NCc4ccc(O)cc4)NC[C@H]2[C@H]1[C@H]3Cc1ccccc1` [IF-466]: the IC50 lay in the range of 10 to 30 µM.

Turning to `CC(C)CC[C@@H]1[C@@H]2[C@@H]3CN[C@@]1(C(=O)NCc1ccc(O)cc1)C[C@@H]3CN2CCc1ccccc1` [IF-468], the IC50 was in the range of 10 to 30 µM.

As to `O=C(NCc1ccc(O)cc1)[C@@]12C[C@@H]3CN(CCc4ccccc4)[C@@H]([C@@H]3CN1)[C@H]2Cc1ccccc1` [IF-469], the IC50 fell in the range of 10 to 30 µM.

On to `CC(C)C[C@@H]1[C@@H]2[C@@H]3CN[C@@]1(C(=O)NCc1ccc(O)cc1)C[C@@H]3CN2CCc1ccccc1` [IF-470], for which the IC50 fell in the range of 10 to 30 µM.

As to `O=C(NCc1ccc(O)cc1)[C@@]12C[C@@H]3CN(Cc4cccc5ccccc45)[C@@H]([C@@H]3CN1)[C@H]2Cc1ccccc1` [IF-472], the IC50 is less than 5 µM.

Turning to `CC(C)C[C@@H]1[C@@H]2[C@@H]3CN[C@@]1(C(=O)NCc1ccc(O)cc1)C[C@@H]3CN2Cc1cccc2ccccc12` [IF-473], the IC50 was less than 5 µM.

For the compound `CC(C)CC[C@@H]1[C@@H]2[C@@H]3CN[C@@]1(C(=O)NCc1ccc(O)cc1)C[C@@H]3CN2CC1CCCCC1` [IF-474], the IC50 was less than 5 µM.

For `O=C(NCc1ccc(O)cc1)[C@@]12C[C@@H]3CN(CC4CCCCC4)[C@@H]([C@@H]3CN1)[C@H]2CCc1ccccc1` [IF-475], the IC50 lay in the range of 10 to 30 µM.

As for `O=C(NCc1ccc(O)cc1)[C@@]12C[C@@H]3CN(CC4CCCCC4)[C@@H]([C@@H]3CN1)[C@H]2Cc1ccccc1` [IF-477], the IC50 is less than 5 µM.

`CC(C)C[C@@H]1[C@@H]2[C@@H]3CN[C@@]1(C(=O)NCc1ccc(O)cc1)C[C@@H]3CN2CC1CCCCC1` [IF-478]: the IC50 was less than 5 µM.

`CC(C)CC[C@@H]1[C@@H]2[C@@H]3CN[C@@]1(C(=O)NCc1ccc(O)cc1)C[C@@H]3CN2Cc1ccc(F)cc1` [IF-479]: the IC50 is less than 5 µM.

As for `O=C(NCc1ccc(O)cc1)[C@@]12C[C@@H]3CN(Cc4ccc(F)cc4)[C@@H]([C@@H]3CN1)[C@H]2Cc1ccccc1` [IF-481], the IC50 fell in the range of 10 to 30 µM.

For the compound `CC(C)C[C@@H]1[C@@H]2[C@@H]3CN[C@@]1(C(=O)NCc1ccc(O)cc1)C[C@@H]3CN2Cc1ccc(F)cc1` [IF-482], the IC50 was 10 to 30 µM.

In the case of `O=C(NCCO)[C@@]12C[C@@H]3CN(CC4CCCCC4)[C@@H]([C@@H]3CN1)[C@H]2Cc1ccccc1` [IF-486], the IC50 is 10 to 30 µM.

Regarding `CC(C)CC[C@@H]1[C@@H]2[C@@H]3CN[C@@]1(C(=O)NCCO)C[C@@H]3CN2Cc1ccc(F)cc1` [IF-490], the IC50 was 10 to 30 µM.

In the case of `CC(C)CC[C@@H]1[C@@H]2[C@@H]3CN[C@@]1(C(=O)NCc1ccc(O)cc1)C[C@@H]3CN2Cc1ccccc1` [IF-493], the IC50 is less than 5 µM.

For `O=C(NCc1ccc(O)cc1)[C@@]12C[C@@H]3CN(Cc4ccccc4)[C@@H]([C@@H]3CN1)[C@H]2Cc1ccccc1` [IF-494], the IC50 fell in the range of 10 to 30 µM.

As for `CC(C)CN1C[C@H]2C[C@]3(C(=O)NCc4ccc(O)cc4)NC[C@H]2[C@H]1[C@H]3Cc1cccc2ccccc12` [IF-500], the IC50 is 10 to 30 µM.

Regarding `CC(C)CC[C@@H]1[C@@H]2[C@@H]3CN[C@@]1(C(=O)NC(C)C)C[C@@H]3CN2Cc1ccc(O)cc1` [IF-503], the IC50 was less than 5 µM.

Consider `CC(C)NC(=O)[C@@]12C[C@@H]3CN(Cc4ccc(O)cc4)[C@@H]([C@@H]3CN1)[C@H]2Cc1cccc2ccccc12` [IF-504], for which the IC50 was in the range of 10 to 30 µM.

As for `NC(=O)CCNC(=O)[C@@]12C[C@@H]3CN(CC4CCCCC4)[C@@H]([C@@H]3CN1)[C@H]2Cc1cccc2ccccc12` [IF-536], the IC50 is less than 5 µM.

As to `NC(=O)CCNC(=O)[C@@]12C[C@@H]3CN(Cc4ccc(F)cc4)[C@@H]([C@@H]3CN1)[C@H]2Cc1cccc2ccccc12` [IF-539], the IC50 was less than 5 µM.

Regarding `O=C(NCCc1ccccc1)[C@@]12C[C@@H]3CN(Cc4ccc(O)cc4)[C@@H]([C@@H]3CN1)[C@H]2Cc1cccc2ccccc12` [IF-580], the IC50 was in the range of 10 to 30 µM.

Turning to `CC(C)NC(=O)[C@@]12C[C@@H]3CN(Cc4cccc5ccccc45)[C@@H]([C@@H]3CN1)[C@H]2Cc1cccc2ccccc12` [IF-596], the IC50 fell in the range of 10 to 30 µM.

As for `O=C(NCCO)[C@@]12C[C@@H]3CN(Cc4cccc5ccccc45)[C@@H]([C@@H]3CN1)[C@H]2Cc1ccccc1` [IF-603], the IC50 lay within 10 to 30 µM.

Regarding `CC(C)C[C@@H]1[C@@H]2[C@@H]3CN[C@@]1(C(=O)NCCO)C[C@@H]3CN2Cc1cccc2ccccc12` [IF-604], the IC50 lay within 10 to 30 µM.

For `CC(C)C[C@@H]1[C@@H]2[C@@H]3CN[C@@]1(C(=O)NCCO)C[C@@H]3CN2CC1CCCCC1` [IF-606], the IC50 lay within 10 to 30 µM.

On to `O=C(NCCc1ccccc1)[C@@]12C[C@@H]3CN(CCO)[C@@H]([C@@H]3CN1)[C@H]2Cc1cccc2ccccc12` [IF-610], for which the IC50 fell in the range of 10 to 30 µM.
